#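 GI50 = concentration required for 50% inhibition of growth. Definition used: TGI = concentration required for complete inhibition of growth.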
# How the values were obtained:
# Experiment in all cases: inhibition of tumour cell growth, NCI panel, 384-well format
# [1] = test system: SR leukemia
# [2] = test system: NCI/ADR-RES ovarian
# [3] = test system: EKVX NSCLC
# [4] = test system: HS 578T breast
# [5] = test system: UACC-62 melanoma
# [6] = test system: 786-0 renal
# [7] = test system: SNB-19 CNS
# [8] = test system: TK-10 renal
# [9] = test system: PC-3 prostate
# [10] = test system: DU-145 prostate
# [11] = test system: HT29 colon
# [12] = test system: A549 NSCLC
# [13] = test system: CCRF-CEM leukemia
# [14] = test system: SK-OV-3 ovarian
# [15] = test system: OVCAR-4 ovarian
# [16] = test system: K-562 leukemia
# [17] = test system: SN12C renal
# [18] = test system: HL-60(TB) leukemia
# [19] = test system: MDA-MB-468 breast
# [20] = test system: HOP-62 NSCLC
# [21] = test system: SK-MEL-28 melanoma
# [22] = test system: KM12 colon
# [23] = test system: MDA-MB-231 breast
# [24] = test system: SF-295 CNS
# [25] = test system: COLO 205 colon
# [26] = test system: CAKI-1 renal
# [27] = test system: UO-31 renal
# [28] = test system: OVCAR-3 ovarian
# [29] = test system: HCT-15 colon
# [30] = test system: BT-549 breast
# [31] = test system: NCI-H460 NSCLC
# [32] = test system: NCI-H522 lung
# [33] = test system: MALME-3M melanoma
# [34] = test system: OVCAR-5 ovarian
# [35] = test system: A498 renal
# [36] = test system: SF-539 CNS
# [37] = test system: SK-MEL-5 melanoma
# [38] = test system: SF-268 CNS
# [39] = test system: ACHN renal
# [40] = test system: NCI-H322M lung
# [41] = test system: HCC-2998 colon
# [42] = test system: LOX IMVI melanoma
# [43] = test system: UACC-257 melanoma
# [44] = test system: OVCAR-8 ovarian
# [45] = test system: MOLT-4 leukemia
# [46] = test system: M14 melanoma
# [47] = test system: NCI-H226 lung
# [48] = test system: IGROV1 ovarian
# [49] = test system: MCF7 breast
# [50] = test system: SNB-75 CNS
# [51] = test system: SW-620 colon
# [52] = test system: NCI-H23 lung
# [53] = test system: RXF 393 renal
# [54] = test system: RPMI-8226 leukemia
# [55] = test system: HOP-92 NSCLC
# [56] = test system: MDA-MB-435 melanoma
# [57] = test system: T-47D breast
compound,measurement,setting,value
[2H]C([2H])([2H])NC(=O)c1nnc(NC(=O)C2CC2)cc1Nc1cccc(-c2ncn(C)n2)c1OC,GI50,[1],29.9 µM
same,TGI,[1],> 100 µM
same,GI50,[2],37.4 µM
same,TGI,[2],> 100 µM
same,GI50,[3],> 100 µM
same,TGI,[3],> 100 µM
same,GI50,[4],18 µM
same,TGI,[4],> 100 µM
same,GI50,[5],25.5 µM
same,TGI,[5],> 100 µM
same,GI50,[6],66.2 µM
same,TGI,[6],> 100 µM
same,GI50,[7],87.4 µM
same,TGI,[7],> 100 µM
same,GI50,[8],> 100 µM
same,TGI,[8],> 100 µM
same,GI50,[9],77.9 µM
same,TGI,[9],> 100 µM
same,GI50,[10],16.4 µM
same,TGI,[10],> 100 µM
same,GI50,[11],> 100 µM
same,TGI,[11],> 100 µM
same,GI50,[12],84.4 µM
same,TGI,[12],> 100 µM
same,GI50,[13],16.6 µM
same,TGI,[13],48.6 µM
same,GI50,[14],5.93 µM
same,TGI,[14],87.6 µM
same,GI50,[15],> 100 µM
same,TGI,[15],> 100 µM
same,GI50,[16],43.4 µM
same,TGI,[16],> 100 µM
same,GI50,[17],32.6 µM
same,TGI,[17],> 100 µM
same,GI50,[18],10.9 µM
same,TGI,[18],26.7 µM
same,GI50,[19],13.3 µM
same,TGI,[19],42.3 µM
same,GI50,[20],25.1 µM
same,TGI,[20],84.9 µM
same,GI50,[21],72.9 µM
same,TGI,[21],> 100 µM
same,GI50,[22],30.2 µM
same,TGI,[22],> 100 µM
same,GI50,[23],29.2 µM
same,TGI,[23],> 100 µM
same,GI50,[24],33.2 µM
same,TGI,[24],> 100 µM
same,GI50,[25],> 100 µM
same,TGI,[25],> 100 µM
same,GI50,[26],14.6 µM
same,TGI,[26],> 100 µM
same,GI50,[27],> 100 µM
same,TGI,[27],> 100 µM
same,GI50,[28],41.6 µM
same,TGI,[28],> 100 µM
same,GI50,[29],12.9 µM
same,TGI,[29],> 100 µM
same,GI50,[30],> 100 µM
same,TGI,[30],> 100 µM
same,GI50,[31],21.3 µM
same,TGI,[31],> 100 µM
same,GI50,[32],79.1 µM
same,TGI,[32],> 100 µM
same,GI50,[33],32.2 µM
same,TGI,[33],> 100 µM
same,GI50,[34],> 100 µM
same,TGI,[34],> 100 µM
same,GI50,[35],6.3 µM
same,TGI,[35],> 100 µM
same,GI50,[36],79.2 µM
same,TGI,[36],> 100 µM
same,GI50,[37],36.8 µM
same,TGI,[37],> 100 µM
same,GI50,[38],> 100 µM
same,TGI,[38],> 100 µM
same,GI50,[39],16.6 µM
same,TGI,[39],> 100 µM
same,GI50,[40],23.3 µM
same,TGI,[40],> 100 µM
same,GI50,[41],> 100 µM
same,TGI,[41],> 100 µM
same,GI50,[42],25 µM
same,TGI,[42],> 100 µM
same,GI50,[43],> 100 µM
same,TGI,[43],> 100 µM
same,GI50,[44],43.6 µM
same,TGI,[44],> 100 µM
same,GI50,[45],15.9 µM
same,TGI,[45],36.8 µM
same,GI50,[46],22.8 µM
same,TGI,[46],> 100 µM
same,GI50,[47],43.9 µM
same,TGI,[47],> 100 µM
same,GI50,[48],26.4 µM
same,TGI,[48],> 100 µM
same,GI50,[49],> 100 µM
same,TGI,[49],> 100 µM
same,GI50,[50],87.9 µM
same,TGI,[50],> 100 µM
same,GI50,[51],93.5 µM
same,TGI,[51],> 100 µM
same,GI50,[52],43.7 µM
same,TGI,[52],> 100 µM
same,GI50,[53],> 100 µM
same,TGI,[53],> 100 µM
same,GI50,[54],3.93 µM
same,TGI,[54],27.6 µM
same,GI50,[55],25.4 µM
same,TGI,[55],> 100 µM
same,GI50,[56],> 100 µM
same,TGI,[56],> 100 µM
same,GI50,[57],> 100 µM
same,TGI,[57],> 100 µM
C=CC(=O)N1CCC(c2ccc(C(N)=O)c(-c3ccc(Oc4ccccc4)cc3)n2)CC1,GI50,[1],11.7 µM
same,TGI,[1],26.7 µM
same,GI50,[2],16.6 µM
same,TGI,[2],37.2 µM
same,GI50,[3],22.6 µM
same,TGI,[3],84.1 µM
same,GI50,[4],21.1 µM
same,TGI,[4],58.9 µM
same,GI50,[5],40.4 µM
same,TGI,[5],> 100 µM
same,GI50,[6],29.2 µM
same,TGI,[6],> 100 µM
same,GI50,[7],39.7 µM
same,TGI,[7],> 100 µM
same,GI50,[8],25.2 µM
same,TGI,[8],81.4 µM
same,GI50,[9],41.2 µM
same,TGI,[9],> 100 µM
same,GI50,[10],24.7 µM
same,TGI,[10],79.9 µM
same,GI50,[11],59.6 µM
same,TGI,[11],> 100 µM
same,GI50,[12],34.8 µM
same,TGI,[12],> 100 µM
same,GI50,[13],17.4 µM
same,TGI,[13],34.2 µM
same,GI50,[14],26.9 µM
same,TGI,[14],> 100 µM
same,GI50,[15],25.7 µM
same,TGI,[15],69.7 µM
same,GI50,[16],28.8 µM
same,TGI,[16],> 100 µM
same,GI50,[17],33.1 µM
same,TGI,[17],> 100 µM
same,GI50,[18],15 µM
same,TGI,[18],28.3 µM
same,GI50,[19],3.99 µM
same,TGI,[19],10.2 µM
same,GI50,[20],25.4 µM
same,TGI,[20],83.7 µM
same,GI50,[21],95.1 µM
same,TGI,[21],> 100 µM
same,GI50,[22],37.3 µM
same,TGI,[22],> 100 µM
same,GI50,[23],30.8 µM
same,TGI,[23],> 100 µM
same,GI50,[24],41.1 µM
same,TGI,[24],> 100 µM
same,GI50,[25],89.8 µM
same,TGI,[25],> 100 µM
same,GI50,[26],23.5 µM
same,TGI,[26],> 100 µM
same,GI50,[27],74.1 µM
same,TGI,[27],> 100 µM
same,GI50,[28],27.1 µM
same,TGI,[28],66.5 µM
same,GI50,[29],30.6 µM
same,TGI,[29],> 100 µM
same,GI50,[30],17.9 µM
same,TGI,[30],41.8 µM
same,GI50,[31],27.4 µM
same,TGI,[31],71.5 µM
same,GI50,[32],12.2 µM
same,TGI,[32],30.7 µM
same,GI50,[33],29.7 µM
same,TGI,[33],83.4 µM
same,GI50,[34],> 100 µM
same,TGI,[34],> 100 µM
same,GI50,[35],21.3 µM
same,TGI,[35],69.9 µM
same,GI50,[36],27 µM
same,TGI,[36],78.5 µM
same,GI50,[37],18 µM
same,TGI,[37],35.8 µM
same,GI50,[38],35.3 µM
same,TGI,[38],> 100 µM
same,GI50,[39],32.4 µM
same,TGI,[39],> 100 µM
same,GI50,[40],25.3 µM
same,TGI,[40],> 100 µM
same,GI50,[41],29.5 µM
same,TGI,[41],90.3 µM
same,GI50,[42],25.1 µM
same,TGI,[42],62.9 µM
same,GI50,[43],18.3 µM
same,TGI,[43],42.1 µM
same,GI50,[44],23.8 µM
same,TGI,[44],66.1 µM
same,GI50,[45],12.7 µM
same,TGI,[45],25.7 µM
same,GI50,[46],33.9 µM
same,TGI,[46],> 100 µM
same,GI50,[47],22.7 µM
same,TGI,[47],72.4 µM
same,GI50,[48],21.3 µM
same,TGI,[48],56 µM
same,GI50,[49],28.6 µM
same,TGI,[49],> 100 µM
same,GI50,[50],37.6 µM
same,TGI,[50],> 100 µM
same,GI50,[51],32.9 µM
same,TGI,[51],84.9 µM
same,GI50,[52],28.3 µM
same,TGI,[52],> 100 µM
same,GI50,[53],24.9 µM
same,TGI,[53],73.5 µM
same,GI50,[54],15.1 µM
same,TGI,[54],29.3 µM
same,GI50,[55],20 µM
same,TGI,[55],91 µM
same,GI50,[56],38.7 µM
same,TGI,[56],> 100 µM
same,GI50,[57],16.9 µM
same,TGI,[57],87.2 µM

# Source: PubChem BioAssay (NCI)
